In US7820665B2, “Imidazopyridazine inhibitors of PI3 kinase for cancer treatment” (Amgen Inc., priority 2007, dated 2010):
Read-outs that look alike come from different tables or passages of the source.

Legend:
[1] = system: Akt phosphorylation at Ser473 in HCT116 cells; experiment: Cell-based phospho-AKT Ser473 assay (HCT116 Cell), MSD sandwich immunoassay;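 further: IGF-1 added at 100 ng/mL for 15 min after compound treatment, electrochemiluminescent readout of phospho-Akt, DMSO-only wells define maximum signal, IC50 reflects inhibition of phosphorylation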
From the text: This assay determines the ability of a compound to inhibit the phosphorylation of Serine 472 in Akt using a MSD based sandwich immunoassay (Meso Scale Detection, Meso Scale Discovery (MSD), Gaithersburg, Md.). HCT116 human colon carcinoma cell lines can be grown in McCoy's 5A growth medium (GIBCO, Carlsbad, Calif.) containing 10% FBS (GIBCO, Carlsbad, Calif.) and X1 Penicillin-streptomycin-glutamine (GIBCO, Carlsbad, Calif.). Prior to the assay, cells can be detached from the culture flask with trypsin, and re-suspended in complete media to give a final concentration of 1.6×10^5 cells per mL. Aliquots (100 μl) of the HCT116 cell suspension can be seeded into each well of a 96 well tissue culture plate to give a final density of 16,000 cells per well. Cells can then be incubated overnight at 37° C.
The following day the cells can be treated with serially diluted test compounds and incubated for 2 hours at 37° C. The culture media on the HCT 116 cells can be replaced with 189 μL McCoys media, supplemented with 0.1% BSA (ICN Biomedicals, Inc., Costa Mesa, Calif.). […] Aliquots (1 μL) of serially-diluted compounds can be transferred to 96 well tissue culture plates containing the HCT 116 cells. […] As a maximum response control, wells can contain 0.5% DMSO in place of compound. The plates can be mixed at 700 rpm for 2 min to ensure even distribution of the test compound and incubated for 2 hours at 37° C. Cells can then be stimulated with insulin-like growth factor 1 (Sigma, St Louis, Mo.) at final concentration of 100 ng/mL for 15 minutes at 37° C. The media can then be removed and the cells treated with 80 μL cell-lysis buffer (MSD) containing a cocktail of protease and phosphatase inhibitors for one hour at 4° C.
25 μL Cell lysate can then be transferred to pre-blocked MSD assay plates pre-coated with a capture antibody specific for Akt, and the plates can be incubated for 2 hours at room temperature. The cell lysates can then be removed and plates can then be washed four times with 200 μl per well of Tris wash buffer (500 mM Tris, PH 7.5, 1.5 M NaCl, 0.2% Tween-20). Subsequently cells can be incubated for 1 hour at room temperature with a 25 μL solution containing the detection antibody, anti-phospho Akt (Ser 473) labeled with an electrochemiluminescent compound (Meso Scale Discovery SULPHO-TAG™ label, MSD, Gaithersburg, Md.). The detection antibody can be removed and plates can then be washed four times with 200 μL per well of Tris wash buffer. An aliquot of 150 μL of diluted MSD read buffer can then be applied to each well, and the electrochemiluminescent signal can be measured using a MSD SECTOR™ plate reader (Meso Scale Discovery, Gaithersburg, Md.). This instrument measures the intensity of emitted light to determine a quantitative measure of phosphorylated Akt in each well. The dose-response data obtained with each compound can be analyzed and the IC50 inhibition of Akt phosphorylation at Ser473 can be calculated.

[2] = target: T1, PI3Kα (Homo sapiens, UniProt P42336); experiment: In vitro PI3 kinase enzyme assay (PI3K ATPLoss); assay type: biochemical; conditions: recombinant p110α/p85, residual ATP by bioluminescence
T1 construct: Full length p110 subunits of PI3K α, β and δ, N-terminally labeled with polyHis tag; polyHis (N); made in house; host or cells: Sf9 insect cells (baculovirus)
T1 sequence (P42336 whole entry, species assumed): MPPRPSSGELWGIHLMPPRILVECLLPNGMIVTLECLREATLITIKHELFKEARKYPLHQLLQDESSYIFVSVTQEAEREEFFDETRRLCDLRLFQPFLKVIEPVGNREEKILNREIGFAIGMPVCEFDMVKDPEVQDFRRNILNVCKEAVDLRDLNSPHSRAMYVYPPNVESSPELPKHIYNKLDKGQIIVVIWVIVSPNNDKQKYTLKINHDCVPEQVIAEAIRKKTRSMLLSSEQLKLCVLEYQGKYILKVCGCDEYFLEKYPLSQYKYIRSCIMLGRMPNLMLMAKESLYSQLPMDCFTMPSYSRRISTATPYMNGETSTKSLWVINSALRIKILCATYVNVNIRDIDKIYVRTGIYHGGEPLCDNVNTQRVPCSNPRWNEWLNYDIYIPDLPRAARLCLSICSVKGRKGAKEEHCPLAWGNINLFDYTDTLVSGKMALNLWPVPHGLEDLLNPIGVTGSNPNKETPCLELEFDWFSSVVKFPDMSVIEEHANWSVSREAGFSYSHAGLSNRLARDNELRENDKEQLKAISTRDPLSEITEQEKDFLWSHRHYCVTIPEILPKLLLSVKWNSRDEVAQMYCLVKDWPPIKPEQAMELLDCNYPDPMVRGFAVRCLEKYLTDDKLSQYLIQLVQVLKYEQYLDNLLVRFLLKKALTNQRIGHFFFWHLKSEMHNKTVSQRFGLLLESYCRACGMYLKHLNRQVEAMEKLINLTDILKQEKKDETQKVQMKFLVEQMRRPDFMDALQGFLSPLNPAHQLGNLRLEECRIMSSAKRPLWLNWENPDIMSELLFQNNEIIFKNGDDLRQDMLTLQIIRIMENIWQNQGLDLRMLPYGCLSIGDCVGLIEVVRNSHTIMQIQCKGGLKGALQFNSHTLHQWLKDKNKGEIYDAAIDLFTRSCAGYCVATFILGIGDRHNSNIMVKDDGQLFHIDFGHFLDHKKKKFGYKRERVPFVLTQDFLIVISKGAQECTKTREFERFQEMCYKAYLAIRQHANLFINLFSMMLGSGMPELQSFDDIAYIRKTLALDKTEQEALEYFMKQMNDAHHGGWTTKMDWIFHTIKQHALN
T1 sequence (P27986 whole entry partner, species assumed): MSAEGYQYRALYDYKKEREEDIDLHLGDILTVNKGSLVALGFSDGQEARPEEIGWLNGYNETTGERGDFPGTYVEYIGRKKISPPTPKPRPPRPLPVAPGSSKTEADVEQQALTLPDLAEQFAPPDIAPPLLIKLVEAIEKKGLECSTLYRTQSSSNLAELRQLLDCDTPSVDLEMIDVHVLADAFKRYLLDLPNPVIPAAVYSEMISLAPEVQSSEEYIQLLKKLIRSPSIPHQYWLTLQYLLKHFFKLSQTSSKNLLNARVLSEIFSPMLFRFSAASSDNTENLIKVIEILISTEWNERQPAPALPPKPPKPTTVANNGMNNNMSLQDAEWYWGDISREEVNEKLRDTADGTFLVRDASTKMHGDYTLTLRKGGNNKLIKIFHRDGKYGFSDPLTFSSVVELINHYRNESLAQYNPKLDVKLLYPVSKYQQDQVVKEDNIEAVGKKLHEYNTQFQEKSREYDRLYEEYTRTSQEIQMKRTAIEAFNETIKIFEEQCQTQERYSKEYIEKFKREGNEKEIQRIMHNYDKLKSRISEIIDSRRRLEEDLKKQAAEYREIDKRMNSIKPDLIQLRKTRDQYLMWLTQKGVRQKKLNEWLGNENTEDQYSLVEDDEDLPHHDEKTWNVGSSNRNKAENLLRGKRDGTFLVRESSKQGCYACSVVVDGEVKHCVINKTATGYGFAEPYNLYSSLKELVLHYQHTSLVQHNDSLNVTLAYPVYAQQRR
Method: Full length p110 subunits of PI3K α, β and δ, N-terminally labeled with polyHis tag, can be co-expressed with p85 with Baculo virus expression vectors in sf9 insect cells. P110/p85 heterodimers can be purified by sequential Ni-NTA, Q-HP, Superdex-100 chromatography. Purified α, β and δ isozymes can be stored at −20° C. in 20 mM Tris, pH 8, 0.2M NaCl, 50% glycerol, 5 mM DTT, 2 mM Na cholate. Truncated PI3Kγ, residues 114-1102, N-terminally labeled with polyHis tag, can be expressed with Baculo virus in Hi5 insect cells. The γ isozyme can be purified by sequential Ni-NTA, Superdex-200, Q-HP chromatography. The γ isozyme can be stored frozen at −80° C. in NaH2PO4, pH 8, 0.2M NaCl, 1% ethylene glycol, 2 mM β-mercaptoethanol.
PI3K enzyme assays (alpha, beta, delta and gamma) can be performed in 25 μL with the above final concentrations of components in white polyproplyene plates. Phosphatidyl inositol phosphoacceptor, PtdIns(4,5)P2 (e.g. P4508) can be obtained from Echelon Biosciences, Salt Lake City, Utah. The ATPase activity of the alpha and gamma isozymes may not be greatly stimulated by PtdIns(4,5)P2 under these conditions, it can be omitted from the assay of these isozymes. Test compounds can be dissolved in DMSO and diluted with three-fold serial dilutions. The compound in DMSO (1 μL) may be added per test well, and the inhibition relative to reactions containing no compound, with and without enzyme can be determined. After assay incubation at RT, the reaction can be stopped and residual ATP can be determined by addition of an equal volume of a commercial ATP bioluminescence kit (Perkin Elmer EasyLite, Perkin Elmer, Waltham, Mass.) according to the manufacturer's instructions, and detected using an Analyst GT luminometer.

[3] = system: phosphorylation of Akt at Serine 473 in U87 MG cells; experiment: pAkt AlphaScreen (U87 Cell); assay type: cell-based; conditions: Homo sapiens, U-87 MG, 2 h, 2 h compound, pAkt Ser473 AlphaScreen
Method: The pAkt AlphaScreen® assay (PerkinElmer, Waltham, Mass.) determines whether there is phosphorylation of Akt at Serine 473 by recruitment of a phosphospecific antibody. This assay was performed using U87 MG cells. The U87 growth media consists of MEM (Gibco, Carlsbad, Calif.) supplemented with 10% FBS (Gibco), 1× Non-Essential Amino Acids (Gibco) and 1× Penicillin/Streptomycin/Glutamine (Gibco). The cells were maintained weekly using 0.05% Trypsin (Gibco) and replated in 150 mm TC-Treated Culture Dishes (Corning, Corning, N.Y.).
The first day of the assay, the adherent cells were trypsinized, media was added to the loose cells and cells were mixed to a homogenous mixture. 0.5 ml of the homogenous mixture was counted on the Beckman Coulter® Vi-CELL™ XR (Fullerton, Calif.). 50 frames of cells were counted and the number of viable cells was determined. The cells were then diluted to 0.25 million cells per ml, and centrifuged at 200 rcf for 5 minutes. The media was removed and the cells were reconstituted in fresh media for plating. The cells were plated at 20 μl per well on the PerkinElmer® Flexprop PLUS in Low Volume 384 Well White Tissue Culture Plates (Corning) with a final cell density of 5K cells per well. The plates were incubated overnight at 37° Celsius, 5% CO2.
On the second day, the compound plates were prepared, the cells were treated with compound and the pAkt reaction mix was added to the cell lysate. 384 well compound plates were prepared containing 1 μl of compound per well starting at 5 mM and diluted 1:2 across the row, resulting in a 22 well serial dilution. 39 μl of growth media was added to the compound plate in rows 1-22 using the PerkinElmer® FlexDrop PLUS resulting in a DMSO concentration of 2.5%. The cell plates and diluted compound plates were put onto the VELOCITY11™ VPREP™ 384 ST where the compound plate was mixed and 5 μl of serially diluted compound or controls was added to the cell plate. The final concentration of the compounds was 25 μM serially diluted to 11.9 pM in 0.5% DMSO. The cell plates were then incubated with compound for two hours at 37° Celsius, 5% CO2. After two hours, the media in the cell plates was aspirated using the BioTek® ELx405HT plate washer (Winooski, Vt.) removing the majority of media and compound without disturbing the adherent U87 cells. The following assay reagents are components of the SureFire® Akt (Ser 473) Phosphorylation 50K Point Kit (TGR BioSciences, Adelaide, Australia) and an IgG Detection Kit (PerkinElmer, Waltham, Mass.). 5 μl of 1× Lysis Buffer was added to each well using the PerkinElmer® FlexDrop PLUS. The plates were then incubated at room temperature on a shaker for ten minutes. The AlphaScreen® reaction was prepared under low light conditions (subdued or green light) including p-Akt (Ser 473) Reaction Buffer, Dilution Buffer, Activation Buffer, Acceptor Beads and Donor Beads at a ratio of 40:20:10:1:1 respectively. The AlphaScreen® reaction was added to the cell lysate at 6 μl per well using the PerkinElmer® FlexDrop PLUS. The plates were placed in a humid environment to reduce edge effects and incubated overnight at room temperature with restricted air flow in the dark.
On the final day of the experiment, the plates were read on the PerkinElmer® EnVision™ 2103 Multilable Reader using the standard AlphaScreen® readout. The POC is calculated and the data is analyzed to report the IC50 IP for pAkt at Serine 473.

[4] = Homo sapiens, HCT-116, 2 h, read-out: HCT116 Cell IC50, HCT116 cells, 2 h compound, IGF-1 stimulation, pAkt Ser473

Row | IC50 [1, 4] [nM] | IC50 [2] [nM] | IC50 [3] [nM] | IC50 ([1]; read-out: HCT116 Cell IC50, HCT116 cells, 2 h compound, IGF-1 stimulation, pAkt Ser473) [nM] | Structure (SMILES)
1 | 1100 | 12 | – | – | CC(=O)Nc1nc2cc(-c3cnc(Cl)c(NS(=O)(=O)c4ccc(F)cc4)c3)ccc2[nH]1 [Example 30, N-(5-(6-Chloro-5-(4-fluorophenylsulfonamido)pyridin-3-yl)-1H-benzo[d]imidazol-2-yl)acetamide]
2 | 2720 | 49 | – | – | CC(=O)Nc1nc2ccc(-c3cnc(Cl)c(NS(=O)(=O)c4ccc(F)cc4)c3)cc2n1-c1ccccn1 [Example 32, N-(6-(6-Chloro-5-(4-fluorophenylsulfonamido)pyridin-3-yl)-1-(pyridin-2-yl)-1H-benzo[d]imidazol-2-yl)acetamide]
3 | 55 | 5 | 21 | – | CC(=O)Nc1cn2nc(-c3cnc(Cl)c(NS(=O)(=O)c4ccc(F)cc4Cl)c3)ccc2n1 [Example 40, N-(6-(6-Chloro-5-(2-chloro-4-fluorophenylsulfonamido)pyridin-3-yl)imidazo[1,2-b]pyridazin-2-yl)acetamide]
4 | 462 | 98 | – | – | CC(=O)Nc1cn2nc(-c3cccc(N(C)S(=O)(=O)c4ccc(C)cc4)c3)ccc2n1 [Example 2, N-(6-(3-(N,4-Dimethylphenylsulfonamido)phenyl)imidazo[1,2-b]pyridazin-2-yl)acetamide]
5 | 214 | 55 | – | – | CC(=O)Nc1cn2nc(-c3cccc(NS(=O)(=O)c4ccc(C)cc4)c3)ccc2n1 [Example 1, N-(6-(3-(4-Methylphenylsulfonamido)phenyl)imidazo[1,2-b]pyridazin-2-yl)acetamide]
6 | – | 9 | 118 | 46 | CC(=O)Nc1cn2cc(-c3cnc(Cl)c(NS(=O)(=O)c4ccc(F)cc4)c3)ccc2n1 [Example 28, N-(6-(6-Chloro-5-(4-fluorophenylsulfonamido)pyridin-3-yl)imidazo[1,2-a]pyridin-2-yl)acetamide]
7 | 975 | 10 | – | – | CC(=O)Nc1cn2cc(-c3cncc(NS(=O)(=O)c4ccc(F)cc4)c3)ccc2n1 [Example 15, N-(6-(5-(4-Fluorophenylsulfonamido)pyridin-3-yl)H-imidazo[1,2-a]pyridin-2-yl)acetamide]
8 | 869 | 104 | – | – | CC(=O)Nc1cn2nc(-c3cncc(S(C)(=O)=O)c3)ccc2n1 [Example 10, N-(6-(5-(Methylsulfonyl)pyridin-3-yl)imidazo[1,2-b]pyridazin-2-yl)acetamide]
9 | 29300 | 37 | – | – | CC(=O)Nc1cn2cc(-c3cncc(NS(C)(=O)=O)c3)ccc2n1 [Example 17, N-(6-(5-(Methylsulfonamido)pyridin-3-yl)H-imidazo[1,2-a]pyridin-2-yl)acetamide]
10 | 14400 | 19 | – | – | CC(=O)Nc1cn2cc(-c3cncc(NS(=O)(=O)C4CC4)c3)ccc2n1 [Example 16, N-(6-(5-(Cyclopropanesulfonamido)pyridin-3-yl)H-imidazo[1,2-a]pyridin-2-yl)acetamide]
11 | – | 33 | 2180 | – | CC(=O)Nc1nc2ccc(-c3cnc(Cl)c(NS(C)(=O)=O)c3)nn2c1I [Example 21, N-(6-(6-Chloro-5-(methylsulfonamido)pyridin-3-yl)-3-iodoimidazo[1,2-b]pyridazin-2-yl)acetamide]
12 | – | 14 | 115 | – | COc1cc(-c2ccc3nc(NC(C)=O)cn3n2)cnc1OC [Example 20, N-(6-(5,6-Dimethoxypyridin-3-yl)imidazo[1,2-b]pyridazin-2-yl)acetamide]
13 | 244 | 7 | – | – | CNC(C)c1ccc(S(=O)(=O)Nc2cc(-c3ccc4nc(NC(C)=O)cn4n3)cnc2Cl)cc1 (racemic) [Example 37, N-(6-(6-chloro-5-(4-(1-(methylamino)ethyl)phenylsulfonamido)pyridin-3-yl)imidazo[1,2-b]pyridazin-2-yl)acetamide]
14 | – | 44 | 242 | – | COc1ccc(-c2ccc3nc(NC(C)=O)cn3n2)cc1OC [Example 43, N-(6-(3,4-Dimethoxyphenyl)imidazo[1,2-b]pyridazin-2-yl)acetamide]
15 | 456 | 62 | – | – | CC(=O)Nc1cn2nc(-c3cccc(NS(=O)(=O)c4cccc5ccccc45)c3)ccc2n1 [Example 7, N-(6-(3-(Naphthalene-1-sulfonamido)phenyl)imidazo[1,2-b]pyridazin-2-yl)acetamide]
16 | 1140 | 77 | – | – | CC(=O)Nc1cn2nc(-c3ccnc(Sc4ccccc4F)c3)ccc2n1 [Example 4, N-(6-(2-(2-Fluorophenylthio)pyridin-4-yl)imidazo[1,2-b]pyridazin-2-yl)acetamide]
17 | 1200 | 60 | – | – | CSc1cncc(-c2ccc3nc(NC(C)=O)cn3n2)c1 [Example 8, N-(6-(5-(Methylthio)pyridin-3-yl)imidazo[1,2-b]pyridazin-2-yl)acetamide]
18 | 847 | 146 | – | – | COc1ccc(S(=O)(=O)N(C)c2nccc(-c3ccc4nc(NC(C)=O)cn4c3)n2)cc1 [Example 13, N-(6-(2-(4-Methoxy-N-methylphenylsulfonamido)pyrimidin-4-yl)H-imidazo[1,2-a]pyridin-2-yl)acetamide]
19 | 213 | 6 | – | – | CC(=O)Nc1cn2nc(-c3cncc(NS(=O)(=O)c4ccc(F)cc4)c3)ccc2n1 [Example 11, N-(6-(5-(4-Fluorophenylsulfonamido)pyridin-3-yl)imidazo[1,2-b]pyridazin-2-yl)acetamide]
20 | – | 1170 | ≥ 25000 | – | CS(=O)(=O)Nc1cc(-c2ccc3nc(N)c(-c4ccc(F)c(C(=O)O)c4)n3n2)cnc1Cl [Example 25, 5-(2-Amino-6-(6-chloro-5-(methylsulfonamido)pyridin-3-yl)imidazo[1,2-b]pyridazin-3-yl)-2-fluorobenzoic acid]
21 | 868 | 8 | – | – | Nc1nc2ccc(-c3cnc(Cl)c(NS(=O)(=O)c4ccc(F)cc4)c3)cc2n1-c1ccccn1 [Example 31, N-(5-(2-Amino-1-(pyridin-2-yl)-1H-benzo[d]imidazol-6-yl)-2-chloropyridin-3-yl)-4-fluorobenzenesulfonamide]
